± gives the expanded uncertainty stated by the source.
Test: xn = mol fraction of the nth substance listed
Conditions: 101.32 kPa, Liquid

COCCOCCOCCOCCOC [2,5,8,11,14-pentaoxapentadecane] + CCO
mass density [kg/m3]
Conditions	288.15 K	298.15 K	308.15 K	318.15 K
x1 = 0.0045	797.9 ± 0.5	789.4 ± 0.5	780.7 ± 0.5	771.9 ± 0.5
x1 = 0.0085	801.4 ± 0.4	792.9 ± 0.5	784.2 ± 0.5	775.3 ± 0.5
x1 = 0.0125	804.8 ± 0.4	796.3 ± 0.5	787.6 ± 0.5	778.7 ± 0.5
x1 = 0.0165	808.2 ± 0.4	799.6 ± 0.5	790.9 ± 0.5	782 ± 0.5
x1 = 0.0205	811.5 ± 0.4	802.9 ± 0.4	794.2 ± 0.5	785.3 ± 0.5
x1 = 0.0305	819.5 ± 0.4	810.8 ± 0.4	802 ± 0.4	793.1 ± 0.5
x1 = 0.05	833.6 ± 0.4	824.9 ± 0.4	816.1 ± 0.4	807.1 ± 0.4
x1 = 0.1	864.1 ± 0.3	855.1 ± 0.4	846.2 ± 0.4	837.1 ± 0.4
x1 = 0.15	888 ± 0.3	878.9 ± 0.3	869.9 ± 0.3	860.7 ± 0.4
x1 = 0.2	907.3 ± 0.3	898.1 ± 0.3	889.1 ± 0.3	879.9 ± 0.3
x1 = 0.25	923.3 ± 0.3	914.1 ± 0.3	905 ± 0.3	895.7 ± 0.3
x1 = 0.3	936.6 ± 0.3	927.4 ± 0.3	918.2 ± 0.3	908.9 ± 0.3
x1 = 0.35	947.9 ± 0.2	938.6 ± 0.3	929.5 ± 0.3	920.2 ± 0.3
x1 = 0.4	957.6 ± 0.2	948.3 ± 0.2	939.2 ± 0.3	929.8 ± 0.3
x1 = 0.45	966 ± 0.2	956.7 ± 0.2	947.5 ± 0.2	938.2 ± 0.3
x1 = 0.5	973.4 ± 0.2	964.1 ± 0.2	954.9 ± 0.2	945.5 ± 0.3
x1 = 0.55	979.9 ± 0.2	970.6 ± 0.2	961.3 ± 0.2	952 ± 0.2
x1 = 0.6	985.7 ± 0.2	976.3 ± 0.2	967.1 ± 0.2	957.8 ± 0.2
x1 = 0.6499	990.9 ± 0.2	981.5 ± 0.2	972.3 ± 0.2	963 ± 0.2
x1 = 0.7	995.6 ± 0.2	986.2 ± 0.2	977 ± 0.2	967.6 ± 0.2
x1 = 0.7498	999.8 ± 0.2	990.4 ± 0.2	981.2 ± 0.2	971.9 ± 0.2
x1 = 0.7999	1003.6 ± 0.2	994.2 ± 0.2	985 ± 0.2	975.6 ± 0.3
x1 = 0.8499	1007 ± 0.2	997.7 ± 0.2	988.4 ± 0.2	979.1 ± 0.3
x1 = 0.8997	1010.2 ± 0.3	1000.9 ± 0.2	991.6 ± 0.3	982.4 ± 0.3
x1 = 0.9496	1013.2 ± 0.3	1003.8 ± 0.3	994.6 ± 0.3	985.3 ± 0.3
x1 = 1	1016 ± 0.3	1006.6 ± 0.3	997.4 ± 0.3	988.1 ± 0.3

Source: the NIST ThermoML archive (doi:10.1021/je0302304)
